Test results as given in patent publication US20240002365A1, “PYRIDAZINE AND 1,2,4-TRIAZINE DERIVATIVES AS FGFR KINASE INHIBITORS” (BETA PHARMA, INC., priority 2020, published 2024).
Like-named read-outs stand apart in the source and are kept apart here.

What was measured:
[1] = Pharmacokinetics assay in male CD-1 mice (plasma, LC-MS/MS, non-compartmental analysis); format: in vivo; conditions: male; for concentration at 0.5 h: 0.500 h; for MRT inf: read-out: MRT0-inf; for MRT last: read-out: MRT0-last
Method: Pharmacokinetics Assay. A pharmacokinetics assay of Example 1 was performed by WuXi AppTec Inc., 6 Cedarbrook Drive, Cranbury, NJ 08512 USA. This study was conducted in 6 to 8-week-old male CD-1 mice (Hilltop Laboratories). Animals were group housed during acclimation and throughout the study. The animal room environment was controlled according to facility operation (temperature: 20 to 26° C.; relative humidity: 30 to 70%; lighting: 12 hour light/dark cycle). Temperature, relative humidity, and lighting were monitored by PointView Environmental Monitoring System. Animals were fed certified pellet diet (Certified Rodent Diet #5002, LabDiet). The diet lot number and specifications were recorded in study notebook and archived at WuXi AppTec. Water (reverse osmosis) was provided to the animals ad libitum. The animals were fasted overnight and food was returned 4 hours post-dose.
An appropriate amount of Example compound 1 above (N^1-(3,5-Dimethoxyphenyl)-N^2-isopropyl-N^1-(3-(1-methyl-1H-pyrazol-4-yl)cinnolin-6-yl)ethane-1,2-diamine) was accurately weighed and mixed with an appropriate volume of 20% hydroxypropyl-(3-cyclodextrin; 80% H2O (w/v) to give either a clear solution or uniform suspension (PO only). Blood samples of about 30-40 μL were collected from peripheral veins at pre-defined time points. into pre-chilled micro-tubes containing K2EDTA as anti-coagulant and kept on ice until centrifugation. The blood samples were centrifuged at 4° C., 3000g for 15 min within half an hour of collection. Plasma was collected into 96-well plate(s), quickly frozen on dry ice and stored at −70±10° C. until LC-MS/MS analysis. The LC-MS/MS analytical method is described as follows:
The pharmacokinetics of Example Compound 1 were analyzed using the Phoenix WinNonlin software (version 6.3) based on the non-compartmental analysis model and the results are shown below in FIGS. 1 and 2 and in Tables 1 and 2. M7, M8, M9, etc. refer to particular mouse subjects used in the study.

FGFR4 = FGFR4 (Homo sapiens (Human), UniProt P22455); test: RBC HotSpot Kinase Assay (33P-ATP filter-binding); format: biochemical; conditions: 10 μM ATP
Method: (§1) Biochemical Assay. […] The reaction buffer was 20 mM HEPES (pH 7.5), 10 mM MgCl2, 1 mM EGTA, 0.02% Brij35, 0.02 mg/mL BSA, 0.1 mM Na3VO4, 2 mM DTT, 1% DMSO. The required cofactors are added individually to each kinase reaction. […] The substrate was Poly (Glu, Tyr) sodium salt and the concentration was 0.2 mg/mL (Sigma; cat. #P7244) where the Glu:Tyr (4:1) molecular weight was 5,000-20,000. […] Reactions were carried out at 10 μM ATP. The serial dilution was conducted by Integra Viaflo Assist in DMSO. The reaction procedure was conducted as follows: • 1) Prepare substrate in freshly prepared Reaction Buffer. • 2) MnCl2 (2 mM) was added as a co-factor listed as above. • 3) Deliver kinase into the substrate solution and gently mix. • 4) Deliver compounds in 100% DMSO into the kinase reaction mixture by Acoustic technology (Echo550; nanoliter range), incubate for 20 min at RT. • 5) Deliver 33P-ATP (specific activity 10 μCi/μL) into the reaction mixture to initiate the reaction. • 6) Incubate for 2 hours at RT. • 7) Detect radioactivity by the filter-binding method. • 8) Kinase activity data was expressed as the percent remaining kinase activity in the test sample compared to vehicle (DMSO) reactions.

FGFR3 = FGFR3 (Homo sapiens (Human), UniProt P22607); test: RBC HotSpot Kinase Assay (33P-ATP filter-binding); format: biochemical; conditions: 10 μM ATP
Method: as §1

FGFR2 = FGFR2 (Homo sapiens (Human), UniProt P21802); test: RBC HotSpot Kinase Assay (33P-ATP filter-binding); format: biochemical; conditions: 10 μM ATP
Method: as §1

FGFR1 = FGFR1 (Homo sapiens (Human), UniProt P11362); test: RBC HotSpot Kinase Assay (33P-ATP filter-binding); format: biochemical; conditions: 10 μM ATP
[2] = CD-1, mouse, plasma, iv, 1 mg/kg, IV 1.00 mg/kg, mean
[3] = CD-1, mouse, plasma, iv, 1 mg/kg, IV 1.00 mg/kg, individual mice M7-M9
[4] = CD-1, mouse, plasma, po, 10 mg/kg, PO 10.0 mg/kg, mean

Chain of FGFR3 (P22607 23-806): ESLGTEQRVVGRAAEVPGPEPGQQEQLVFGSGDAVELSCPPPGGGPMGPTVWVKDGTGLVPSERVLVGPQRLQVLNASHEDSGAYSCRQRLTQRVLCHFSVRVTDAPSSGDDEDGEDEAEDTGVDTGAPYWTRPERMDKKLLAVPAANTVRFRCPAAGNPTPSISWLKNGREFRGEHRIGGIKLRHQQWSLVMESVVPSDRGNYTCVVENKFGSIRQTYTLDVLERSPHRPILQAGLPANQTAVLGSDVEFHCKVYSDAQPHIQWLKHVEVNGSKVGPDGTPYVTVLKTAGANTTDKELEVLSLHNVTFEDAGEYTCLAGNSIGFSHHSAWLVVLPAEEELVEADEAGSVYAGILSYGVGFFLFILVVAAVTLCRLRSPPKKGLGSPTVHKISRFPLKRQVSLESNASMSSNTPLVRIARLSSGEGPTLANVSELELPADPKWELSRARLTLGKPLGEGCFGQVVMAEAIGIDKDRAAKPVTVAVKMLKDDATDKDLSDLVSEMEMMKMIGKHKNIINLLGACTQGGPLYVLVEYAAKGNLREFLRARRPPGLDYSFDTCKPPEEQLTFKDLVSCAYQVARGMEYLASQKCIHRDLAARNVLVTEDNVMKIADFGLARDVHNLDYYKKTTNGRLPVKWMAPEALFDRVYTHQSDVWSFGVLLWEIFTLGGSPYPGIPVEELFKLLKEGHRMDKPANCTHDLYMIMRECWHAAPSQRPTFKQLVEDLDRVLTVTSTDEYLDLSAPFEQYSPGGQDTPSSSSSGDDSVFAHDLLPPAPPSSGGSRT
Chain of FGFR1 (P11362 22-822): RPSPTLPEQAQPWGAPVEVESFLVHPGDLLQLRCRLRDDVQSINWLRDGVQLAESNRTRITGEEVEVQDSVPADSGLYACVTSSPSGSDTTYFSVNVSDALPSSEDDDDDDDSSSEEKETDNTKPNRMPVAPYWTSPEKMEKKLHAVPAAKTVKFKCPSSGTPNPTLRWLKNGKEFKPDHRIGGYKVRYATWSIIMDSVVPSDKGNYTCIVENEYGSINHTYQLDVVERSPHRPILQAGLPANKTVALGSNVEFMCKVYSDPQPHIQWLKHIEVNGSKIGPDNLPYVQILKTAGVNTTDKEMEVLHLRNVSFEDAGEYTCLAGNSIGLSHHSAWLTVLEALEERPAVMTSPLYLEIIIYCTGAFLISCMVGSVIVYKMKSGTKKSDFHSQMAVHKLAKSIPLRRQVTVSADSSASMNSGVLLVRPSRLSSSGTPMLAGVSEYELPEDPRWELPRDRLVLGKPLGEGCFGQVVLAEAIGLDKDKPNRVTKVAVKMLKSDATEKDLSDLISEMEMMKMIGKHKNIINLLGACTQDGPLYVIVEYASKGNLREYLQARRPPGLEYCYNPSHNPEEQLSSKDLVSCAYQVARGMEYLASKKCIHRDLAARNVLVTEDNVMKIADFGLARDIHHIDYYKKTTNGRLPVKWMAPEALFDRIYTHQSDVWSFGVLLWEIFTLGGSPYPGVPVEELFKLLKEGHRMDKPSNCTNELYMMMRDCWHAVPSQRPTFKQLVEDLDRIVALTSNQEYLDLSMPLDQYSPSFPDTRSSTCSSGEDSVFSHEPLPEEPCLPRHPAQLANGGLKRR
Chain of FGFR4 (P22455 22-802): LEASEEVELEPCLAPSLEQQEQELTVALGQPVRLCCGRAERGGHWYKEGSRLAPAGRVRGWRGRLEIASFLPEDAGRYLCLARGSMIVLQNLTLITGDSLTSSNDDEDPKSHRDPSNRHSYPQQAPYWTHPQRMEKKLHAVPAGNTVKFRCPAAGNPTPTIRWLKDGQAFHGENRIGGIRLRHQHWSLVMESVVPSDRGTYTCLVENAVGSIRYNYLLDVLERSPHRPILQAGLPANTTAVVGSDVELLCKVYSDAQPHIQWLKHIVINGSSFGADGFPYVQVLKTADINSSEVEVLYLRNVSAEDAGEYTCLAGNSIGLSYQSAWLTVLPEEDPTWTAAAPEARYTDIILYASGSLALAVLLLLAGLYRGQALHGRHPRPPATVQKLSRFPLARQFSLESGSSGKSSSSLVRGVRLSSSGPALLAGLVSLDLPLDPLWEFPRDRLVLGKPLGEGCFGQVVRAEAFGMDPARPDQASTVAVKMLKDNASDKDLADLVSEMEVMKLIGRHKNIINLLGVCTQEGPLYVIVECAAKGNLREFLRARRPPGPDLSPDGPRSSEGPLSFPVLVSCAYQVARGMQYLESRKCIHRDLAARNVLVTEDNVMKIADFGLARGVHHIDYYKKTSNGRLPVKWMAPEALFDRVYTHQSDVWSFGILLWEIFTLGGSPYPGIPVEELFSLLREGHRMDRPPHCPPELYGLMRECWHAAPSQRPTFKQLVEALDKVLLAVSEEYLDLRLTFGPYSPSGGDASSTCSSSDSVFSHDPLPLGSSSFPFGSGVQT
Chain of FGFR2 (P21802 22-821): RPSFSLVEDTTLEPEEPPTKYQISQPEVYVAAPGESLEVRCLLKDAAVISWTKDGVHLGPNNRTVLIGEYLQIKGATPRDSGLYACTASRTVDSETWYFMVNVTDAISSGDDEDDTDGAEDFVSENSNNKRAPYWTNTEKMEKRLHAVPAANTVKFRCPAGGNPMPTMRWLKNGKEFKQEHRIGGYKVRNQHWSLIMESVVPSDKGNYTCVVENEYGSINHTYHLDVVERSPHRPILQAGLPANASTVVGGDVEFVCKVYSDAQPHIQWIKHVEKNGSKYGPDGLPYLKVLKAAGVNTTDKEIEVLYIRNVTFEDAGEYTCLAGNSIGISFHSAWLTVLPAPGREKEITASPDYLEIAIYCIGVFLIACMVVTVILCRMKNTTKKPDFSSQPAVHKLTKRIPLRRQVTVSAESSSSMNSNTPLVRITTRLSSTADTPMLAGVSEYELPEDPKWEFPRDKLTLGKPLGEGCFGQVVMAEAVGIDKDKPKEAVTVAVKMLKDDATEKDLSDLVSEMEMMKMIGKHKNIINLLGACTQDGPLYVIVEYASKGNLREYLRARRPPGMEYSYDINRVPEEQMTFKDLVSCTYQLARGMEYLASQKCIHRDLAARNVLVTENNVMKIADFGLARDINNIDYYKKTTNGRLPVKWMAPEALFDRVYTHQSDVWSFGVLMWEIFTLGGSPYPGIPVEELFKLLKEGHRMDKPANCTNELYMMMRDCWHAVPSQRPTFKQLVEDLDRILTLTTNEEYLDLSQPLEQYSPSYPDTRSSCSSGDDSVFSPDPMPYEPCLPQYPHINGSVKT

COc1cc(OC)cc(N(CCNC(C)C)c2ccc3nnc(-c4cnn(C)c4)cc3c2)c1 [Example 1, N^1-(3,5-Dimethoxyphenyl)-N^2-isopropyl-N^1-(3-(1-methyl-1H-pyrazol-4-yl)cinnolin-6-yl)ethane-1,2-diamine]
concentration at 0.083 h ([1]; CD-1, mouse, plasma, iv, 1 mg/kg, IV 1.00 mg/kg, 299 s, mean): 360 ng/mL | concentration at 0.25 h ([1]; CD-1, mouse, plasma, iv, 1 mg/kg, IV 1.00 mg/kg, 0.250 h, mean): 211 ng/mL | concentration at 0.5 h [1, 2]: 125 ng/mL | concentration at 1 h [1, 2]: 57.9 ng/mL | concentration at 2 h [1, 2]: 14 ng/mL | concentration at 4 h [1, 3]: 3.72 ng/mL | concentration at 4 h [1, 2]: 3.51 ng/mL | concentration at 8 h [1, 3]: 1.65 ng/mL | concentration at 8 h [1, 2]: 1.6 ng/mL | concentration at 24 h [1, 3]: 1.36 ng/mL | concentration at 24 h [1, 2]: 1.79 ng/mL | AUC(0-t) [1, 3]: 226 ng·h/mL | clearance [1, 3]: 73 mL/min/kg | AUC0-inf ([1]; CD-1, mouse, plasma, iv, 1 mg/kg, IV 1.00 mg/kg, individual mice M7-M9, read-out: AUC0-inf): 228 ng·h/mL | C0 ([1]; CD-1, mouse, plasma, iv, 1 mg/kg, IV 1.00 mg/kg, individual mice M7-M9, read-out: C0): 448 ng/mL | AUC(0-t) [1, 2]: 239 ng·h/mL | clearance [1, 2]: 70.8 mL/min/kg | half-life [1, 2]: 1.67 h | AUC0-inf ([1]; CD-1, mouse, plasma, iv, 1 mg/kg, IV 1.00 mg/kg, mean, read-out: AUC0-inf): 243 ng·h/mL | C0 ([1]; CD-1, mouse, plasma, iv, 1 mg/kg, IV 1.00 mg/kg, mean, read-out: C0): 472 ng/mL | MRT inf [1, 2]: 2.75 h | MRT last [1, 2]: 2.28 h | Vd ([1]; CD-1, mouse, plasma, iv, 1 mg/kg, IV 1.00 mg/kg, mean, read-out: Vdss): 12.8 L/kg | concentration at 0.167 h ([1]; CD-1, mouse, plasma, po, 10 mg/kg, PO 10.0 mg/kg, 0.167 h, mean): 79.1 ng/mL | concentration at 0.5 h [1, 4]: 147 ng/mL | concentration at 1 h [1, 4]: 89.8 ng/mL | concentration at 2 h [1, 4]: 44.4 ng/mL | concentration at 4 h [1, 4]: 15 ng/mL | concentration at 6 h ([1]; CD-1, mouse, plasma, po, 10 mg/kg, PO 10.0 mg/kg, 6.00 h, mean): 10.7 ng/mL | concentration at 8 h [1, 4]: 6.6 ng/mL | concentration at 24 h [1, 4]: 4.53 ng/mL | AUC(0-t) [1, 4]: 330 ng·h/mL | half-life [1, 4]: 8.05 h | AUC0-inf ([1]; CD-1, mouse, plasma, po, 10 mg/kg, PO 10.0 mg/kg, mean, read-out: AUC0-inf): 389 ng·h/mL | Cmax ([1]; CD-1, mouse, plasma, po, 10 mg/kg, PO 10.0 mg/kg, mean, read-out: Cmax): 147 ng/mL | MRT inf [1, 4]: 9.81 h | MRT last [1, 4]: 5.13 h | bioavailability ([1]; CD-1, plasma, PO 10.0 mg/kg vs IV 1.00 mg/kg, mouse, calculated from AUC): 13.8% | Tmax ([1]; CD-1, plasma, PO 10.0 mg/kg, mouse, individual mice M10-M12): 0.5 h | IC50 (FGFR4): 11 nM | IC50 (FGFR3): 7.6 nM | IC50 (FGFR2): 4.3 nM | IC50 (FGFR1): 7.3 nM
